From PMC4310624 (Biochemistry, 2014)

Legend:
[1] = test system: E. coli DH10B pBCSK SHV-1; assay: Disc diffusion assay, SHV-1 expressing strain; type: cell-based, Escherichia coli; details: for zone size of cephalothin combined with the inhibitor: strain expressing SHV-1
[2] = test system: E. coli DH10B pBCSK control; assay: Disc diffusion assay, control strain; type: cell-based, Escherichia coli; details: cephalothin 30 μg and 30 μg of each inhibitor, 37 °C, 18 h
SHV-1 = target: T1, SHV-1 (Klebsiella pneumoniae, UniProt P0AD64); details: SHV-1, E/I = 1:10, nitrocefin assay
T1 sequence (P0AD64 22-286): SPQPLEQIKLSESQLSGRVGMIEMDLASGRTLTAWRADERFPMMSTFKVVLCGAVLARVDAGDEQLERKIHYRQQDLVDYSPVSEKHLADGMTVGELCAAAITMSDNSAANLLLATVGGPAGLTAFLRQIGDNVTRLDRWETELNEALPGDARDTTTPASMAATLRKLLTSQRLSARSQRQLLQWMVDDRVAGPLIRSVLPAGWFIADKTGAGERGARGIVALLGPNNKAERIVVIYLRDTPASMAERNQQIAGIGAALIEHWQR

[3] = Base hydrolysis in 1 M NaOH followed by Raman spectroscopy; type: physicochemical
class A or C enzymes = details: ref unpublished screening work, Bethel and Bonomo; cited from earlier work

Structure (SMILES): CC(=O)OCC1=C(C(=O)O)N2C(=O)[C@@H](NC(=O)Cc3cccs3)[C@H]2SC1 [cephalothin]
- zone diameter ([1]; cephalothin 30 μg and 30 μg of each inhibitor, 37 °C, 18 h): 6 mm
- zone diameter [2]: 34 mm

Structure (SMILES): CC1(C)[C@H](C(=O)O)N2C(=O)C[C@H]2S1(=O)=O [sulbactam]
- enzyme activity against nitrocefin after reaction with inhibitor (SHV-1): remained fully active
- zone size of cephalothin combined with the inhibitor [1]: 10 mm
- time for conversion of imine to cis-enamine ([3]; 1 M NaOH, Raman, all imine converted): 60 min
- time to hydrolysis to imine (lactam ring opening, imine maximum) ([3]; 1 M NaOH, room temperature, Raman): less than 3 min
- time for iminium ion conversion to cis-enamine ([3]; base hydrolysis, as stated in abstract): 1 h

Structure (SMILES): CC1(C)[C@H](C(=O)O)N2C(=O)[C@@H](CO)[C@H]2S1(=O)=O [6α-(hydroxymethyl)penicillanic acid sulfone]
- inhibition in the IC50 or MIC assays (class A or C enzymes): did not show any inhibition

Structure (SMILES): C[C@]1(Cn2ccnn2)[C@H](C(=O)O)N2C(=O)C[C@H]2S1(=O)=O [tazobactam]
- zone size of cephalothin combined with the inhibitor [1]: 16 mm
